Experimental data published in ChEMBL document CHEMBL1135457 (J Med Chem, 2002).

Experiments:
[1] = molecular target: T1, Estrogen receptor (Homo sapiens) (UniProt P03372); assay: Displacement of radioligand from human Estrogen receptor alpha, percent inhibition at 10 uM
T1 sequence (whole entry): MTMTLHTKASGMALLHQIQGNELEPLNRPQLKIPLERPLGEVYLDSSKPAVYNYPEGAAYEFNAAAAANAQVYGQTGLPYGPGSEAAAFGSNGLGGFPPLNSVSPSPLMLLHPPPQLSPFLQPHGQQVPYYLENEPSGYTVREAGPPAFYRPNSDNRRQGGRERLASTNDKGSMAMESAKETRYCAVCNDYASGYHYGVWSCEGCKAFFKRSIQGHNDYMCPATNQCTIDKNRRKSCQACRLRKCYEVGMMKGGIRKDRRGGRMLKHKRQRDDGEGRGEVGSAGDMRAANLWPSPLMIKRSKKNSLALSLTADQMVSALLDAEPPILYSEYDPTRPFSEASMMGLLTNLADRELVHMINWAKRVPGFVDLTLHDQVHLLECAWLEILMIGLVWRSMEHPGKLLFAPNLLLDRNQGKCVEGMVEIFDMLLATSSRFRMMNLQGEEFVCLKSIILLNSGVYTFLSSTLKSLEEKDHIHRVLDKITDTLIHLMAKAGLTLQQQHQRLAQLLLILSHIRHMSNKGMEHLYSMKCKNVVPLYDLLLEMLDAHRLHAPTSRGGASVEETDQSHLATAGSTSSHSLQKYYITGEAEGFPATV

[2] = molecular target: T2, Mineralocorticoid receptor (Homo sapiens) (UniProt P08235)
T2 sequence (whole entry): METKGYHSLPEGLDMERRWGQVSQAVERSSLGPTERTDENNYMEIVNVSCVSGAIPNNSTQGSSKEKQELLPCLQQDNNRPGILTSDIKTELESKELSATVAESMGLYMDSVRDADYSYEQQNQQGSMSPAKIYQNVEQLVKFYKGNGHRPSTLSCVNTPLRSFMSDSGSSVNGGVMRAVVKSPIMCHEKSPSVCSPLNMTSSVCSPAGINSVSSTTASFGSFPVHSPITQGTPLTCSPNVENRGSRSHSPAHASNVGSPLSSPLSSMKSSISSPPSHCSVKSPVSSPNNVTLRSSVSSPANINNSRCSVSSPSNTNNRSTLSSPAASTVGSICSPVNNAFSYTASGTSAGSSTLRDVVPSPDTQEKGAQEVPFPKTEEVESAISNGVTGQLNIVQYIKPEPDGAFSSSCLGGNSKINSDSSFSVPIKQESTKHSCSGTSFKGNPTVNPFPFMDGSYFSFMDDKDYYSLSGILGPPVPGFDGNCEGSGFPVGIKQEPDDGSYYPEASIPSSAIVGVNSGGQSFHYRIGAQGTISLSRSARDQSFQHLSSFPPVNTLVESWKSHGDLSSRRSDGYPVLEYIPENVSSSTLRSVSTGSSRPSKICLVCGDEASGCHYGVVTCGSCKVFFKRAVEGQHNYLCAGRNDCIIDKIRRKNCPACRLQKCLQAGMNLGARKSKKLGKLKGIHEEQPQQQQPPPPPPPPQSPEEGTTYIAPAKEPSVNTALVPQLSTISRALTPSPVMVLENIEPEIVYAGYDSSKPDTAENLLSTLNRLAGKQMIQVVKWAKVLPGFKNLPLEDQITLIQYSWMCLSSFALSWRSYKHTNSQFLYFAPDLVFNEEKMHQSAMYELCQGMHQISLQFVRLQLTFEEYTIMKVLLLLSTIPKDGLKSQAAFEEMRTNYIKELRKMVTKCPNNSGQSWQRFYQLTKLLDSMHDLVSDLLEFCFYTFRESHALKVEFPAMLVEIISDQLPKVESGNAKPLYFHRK

[3] = molecular target: T3, Glucocorticoid receptor (Homo sapiens) (UniProt P04150)
T3 sequence (whole entry): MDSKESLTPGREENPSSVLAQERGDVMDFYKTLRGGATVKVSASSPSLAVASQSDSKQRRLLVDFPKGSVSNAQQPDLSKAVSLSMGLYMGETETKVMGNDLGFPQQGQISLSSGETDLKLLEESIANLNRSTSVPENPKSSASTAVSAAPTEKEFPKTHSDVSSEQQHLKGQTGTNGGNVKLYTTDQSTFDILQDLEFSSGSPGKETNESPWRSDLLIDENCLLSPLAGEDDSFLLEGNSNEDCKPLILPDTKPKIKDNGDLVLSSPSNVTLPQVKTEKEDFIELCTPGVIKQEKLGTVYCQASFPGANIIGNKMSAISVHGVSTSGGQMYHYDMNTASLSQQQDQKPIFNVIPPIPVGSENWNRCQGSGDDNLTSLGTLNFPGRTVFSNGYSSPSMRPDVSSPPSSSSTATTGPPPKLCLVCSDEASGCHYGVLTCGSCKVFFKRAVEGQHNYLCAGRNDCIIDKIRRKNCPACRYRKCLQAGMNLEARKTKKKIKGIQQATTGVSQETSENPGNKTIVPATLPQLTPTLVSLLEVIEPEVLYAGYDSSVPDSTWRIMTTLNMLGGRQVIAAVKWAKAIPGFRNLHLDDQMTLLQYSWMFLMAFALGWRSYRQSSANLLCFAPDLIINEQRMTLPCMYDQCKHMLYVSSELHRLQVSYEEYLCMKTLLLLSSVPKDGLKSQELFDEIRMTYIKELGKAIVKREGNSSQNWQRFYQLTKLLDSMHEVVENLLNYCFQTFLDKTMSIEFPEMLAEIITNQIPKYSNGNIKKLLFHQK
Description: (§1) Antagonist activity as displacement of 10 nM [3H]dexamethasone from human Glucocorticoid receptor

[4] = molecular target: T4, Progesterone receptor (Homo sapiens) (UniProt P06401)
T4 sequence (whole entry): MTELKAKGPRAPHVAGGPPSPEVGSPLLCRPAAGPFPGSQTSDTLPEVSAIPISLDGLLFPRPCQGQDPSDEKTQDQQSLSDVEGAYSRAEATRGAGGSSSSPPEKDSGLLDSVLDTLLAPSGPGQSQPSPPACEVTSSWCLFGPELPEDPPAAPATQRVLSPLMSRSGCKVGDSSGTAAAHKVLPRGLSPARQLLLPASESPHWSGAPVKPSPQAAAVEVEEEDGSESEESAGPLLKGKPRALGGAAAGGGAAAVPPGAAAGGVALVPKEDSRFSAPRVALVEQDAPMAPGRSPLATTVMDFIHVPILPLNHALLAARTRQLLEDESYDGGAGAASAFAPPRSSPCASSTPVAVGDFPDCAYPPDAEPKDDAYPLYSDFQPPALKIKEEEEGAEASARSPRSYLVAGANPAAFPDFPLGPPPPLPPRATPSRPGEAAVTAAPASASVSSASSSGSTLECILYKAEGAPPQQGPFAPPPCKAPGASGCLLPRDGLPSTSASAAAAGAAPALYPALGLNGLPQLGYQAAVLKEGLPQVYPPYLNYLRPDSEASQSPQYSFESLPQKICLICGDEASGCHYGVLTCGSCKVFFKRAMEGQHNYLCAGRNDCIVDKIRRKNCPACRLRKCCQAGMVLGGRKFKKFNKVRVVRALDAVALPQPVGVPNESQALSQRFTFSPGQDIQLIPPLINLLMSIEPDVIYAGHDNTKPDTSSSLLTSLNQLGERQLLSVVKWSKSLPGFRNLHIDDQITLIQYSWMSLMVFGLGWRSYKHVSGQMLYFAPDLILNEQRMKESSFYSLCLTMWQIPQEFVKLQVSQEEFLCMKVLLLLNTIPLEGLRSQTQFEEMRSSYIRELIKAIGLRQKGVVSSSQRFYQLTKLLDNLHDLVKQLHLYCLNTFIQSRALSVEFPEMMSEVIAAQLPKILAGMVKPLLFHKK
Description: (§2) Antagonist activity against human Progesterone receptor by displacement of radioligand

Estrogen receptor beta [5] = molecular target: T5, Estrogen receptor beta (Homo sapiens, UniProt Q92731); assay: Displacement of radioligand from human Estrogen receptor beta, percent inhibition at 10 uM
T5 sequence (Q92731 whole entry): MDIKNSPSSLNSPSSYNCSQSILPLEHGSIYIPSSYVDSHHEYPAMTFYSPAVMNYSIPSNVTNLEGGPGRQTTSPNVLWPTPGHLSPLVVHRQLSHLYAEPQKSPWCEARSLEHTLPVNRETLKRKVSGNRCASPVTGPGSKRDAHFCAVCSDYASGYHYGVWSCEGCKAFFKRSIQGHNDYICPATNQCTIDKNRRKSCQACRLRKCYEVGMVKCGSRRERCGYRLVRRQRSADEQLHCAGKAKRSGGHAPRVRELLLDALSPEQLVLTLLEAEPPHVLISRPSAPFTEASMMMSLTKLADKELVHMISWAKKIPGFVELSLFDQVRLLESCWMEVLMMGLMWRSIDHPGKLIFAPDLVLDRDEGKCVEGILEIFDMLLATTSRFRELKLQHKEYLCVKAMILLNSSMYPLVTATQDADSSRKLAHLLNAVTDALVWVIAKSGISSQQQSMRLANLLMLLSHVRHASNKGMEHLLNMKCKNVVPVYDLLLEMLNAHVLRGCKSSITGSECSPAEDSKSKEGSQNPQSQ

[6] = molecular target: T3, Glucocorticoid receptor (Homo sapiens); remark: listed apart in the source
Description: as §1

Estrogen receptor = molecular target: T6, Estrogen receptor (Homo sapiens, UniProt P03372); assay: Displacement of radioligand from human Estrogen receptor alpha
T6 sequence (P03372 whole entry): T1 sequence (whole entry)

Androgen receptor = molecular target: T7, Androgen receptor (Homo sapiens, UniProt P10275); assay: Displacement of [3H]DHT from human Androgen receptor
T7 sequence (P10275 whole entry): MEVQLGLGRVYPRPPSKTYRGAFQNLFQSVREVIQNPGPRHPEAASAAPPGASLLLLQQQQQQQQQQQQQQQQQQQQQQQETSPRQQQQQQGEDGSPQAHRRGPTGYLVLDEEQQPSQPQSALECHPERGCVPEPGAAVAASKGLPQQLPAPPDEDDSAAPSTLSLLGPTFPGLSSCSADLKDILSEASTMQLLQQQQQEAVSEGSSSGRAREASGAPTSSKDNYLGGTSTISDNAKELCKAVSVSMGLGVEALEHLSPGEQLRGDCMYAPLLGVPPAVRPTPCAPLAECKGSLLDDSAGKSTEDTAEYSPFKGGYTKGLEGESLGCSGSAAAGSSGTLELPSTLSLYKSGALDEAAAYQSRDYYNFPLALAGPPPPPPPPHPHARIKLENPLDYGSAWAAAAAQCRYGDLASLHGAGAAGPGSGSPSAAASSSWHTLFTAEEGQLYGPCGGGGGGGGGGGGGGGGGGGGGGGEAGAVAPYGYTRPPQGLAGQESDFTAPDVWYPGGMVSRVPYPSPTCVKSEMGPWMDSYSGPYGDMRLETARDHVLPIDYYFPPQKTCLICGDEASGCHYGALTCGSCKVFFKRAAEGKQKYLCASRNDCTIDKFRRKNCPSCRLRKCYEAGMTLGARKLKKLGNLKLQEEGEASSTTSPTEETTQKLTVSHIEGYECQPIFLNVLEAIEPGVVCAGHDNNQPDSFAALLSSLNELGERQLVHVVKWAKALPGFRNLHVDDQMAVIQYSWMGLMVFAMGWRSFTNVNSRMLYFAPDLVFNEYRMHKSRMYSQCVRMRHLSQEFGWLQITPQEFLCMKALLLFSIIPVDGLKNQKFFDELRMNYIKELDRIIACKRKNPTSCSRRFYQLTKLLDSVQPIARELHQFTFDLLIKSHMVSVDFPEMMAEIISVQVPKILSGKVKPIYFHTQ

Glucocorticoid receptor = molecular target: T8, Glucocorticoid receptor (Homo sapiens, UniProt P04150); assay: Displacement of 10 nM [3H]dexamethasone from human Glucocorticoid receptor
T8 sequence (P04150 whole entry): T3 sequence (whole entry)

Estrogen receptor beta [7] = molecular target: T5, Estrogen receptor beta; assay: Displacement of radioligand from human ER beta
Progesterone receptor = molecular target: T9, Progesterone receptor (Homo sapiens, UniProt P06401); assay: Displacement of radioligand from human Progesterone receptor
T9 sequence (P06401 whole entry): T4 sequence (whole entry)

[8] = molecular target: T2, Mineralocorticoid receptor (Homo sapiens); assay: Antagonist activity against human mineralocorticoid receptor as displacement of radioligand, percent […]; format: functional
[9] = molecular target: T4, Progesterone receptor (Homo sapiens); conditions: 1 uM
Description: Antagonist activity against human Progesterone receptor as displacement of radioligand, percent inhibition at 1 uM

[10] = molecular target: T2, Mineralocorticoid receptor (Homo sapiens); remark: listed apart in the source
[11] = molecular target: T4, Progesterone receptor (Homo sapiens); remark: listed apart in the source
Description: as §2

Compound | inhibition [1] | Kif [2] | Kif [4] | inhibition (Estrogen receptor beta [5]) | Kif [6] | Ki (Androgen receptor) | Ki (Glucocorticoid receptor) | Ki (Progesterone receptor) | further results
O=C1C=C2CCc3cc(O)ccc3C2(Cc2ccccc2)CC1 (single isomer, unassigned; form 1) [listing 1 of 2 here] | 36% | > 1000 nM | > 1000 nM | 24% |  |  |  |  | Kif [3]: > 1000 nM
O=C1C=C2CCc3cc(O)ccc3C2(Cc2ccccc2)CC1 (single isomer, unassigned; form 2) [listing 1 of 2 here] | 70% | > 1000 nM | > 1000 nM | 39% | > 1000 nM |  |  |  | 
COc1ccc2c(c1)CCC1=CC(=O)CCC12Cc1ccccc1 (single isomer, unassigned; form 2) [listing 1 of 2 here] |  |  |  |  |  | 0.054 µM | > 10 µM | > 10 µM | Ki (Estrogen receptor): > 10 µM; Ki (Estrogen receptor beta [7]): > 10 µM
CC#C[C@]1(O)CC[C@H]2[C@@H]3CCC4=CC(=O)CCC4=C3[C@@H](c3ccc(N(C)C)cc3)C[C@@]21C | 44% |  | 11.8 nM | 92% | 2 nM |  |  |  | inhibition [8]: 69.7%; inhibition [9]: 100%; Kif [10]: < 10 nM
O=C1C=C2CCc3cc(O)ccc3C2(Cc2ccccc2)CC1 (single isomer, unassigned; form 2) [listing 2 of 2 here] |  |  |  |  |  | 0.18 µM | 0.157 µM | > 10 µM | 
COc1ccc2c(c1)CCC1=CC(=O)CCC12Cc1ccccc1 (single isomer, unassigned; form 2) [listing 2 of 2 here] |  |  |  |  | > 1000 nM |  |  |  | Kif [10]: > 1000 nM; Kif [11]: > 1000 nM
O=C1C=C2CCc3cc(O)ccc3C2(Cc2ccccc2)CC1 (single isomer, unassigned; form 1) [listing 2 of 2 here] |  |  |  |  |  | > 10 µM | > 10 µM | > 10 µM | 
COc1ccc2c(c1)CCC1=CC(=O)CCC12Cc1ccccc1 (single isomer, unassigned; form 1) [listing 1 of 2 here] | 27% | > 1000 nM | > 1000 nM |  | > 1000 nM |  |  |  | 
COc1ccc2c(c1)CCC1=CC(=O)CCC12Cc1ccccc1 (single isomer, unassigned; form 1) [listing 2 of 2 here] |  |  |  |  |  | 0.69 µM | > 10 µM | > 10 µM | Ki (Estrogen receptor beta [7]): > 10 µM
